Read-outs that look alike come from different tables or passages of the source.
Key:
Experiment in all cases: biochemical
Set-up in all cases: Eurofins DiscoverX kinase panel, competitive binding assay at 1 uM, percent of DMSO control
Details in all cases: competitive binding, percent of DMSO control
DAPK1 = DAPK1 (Homo sapiens, UniProt P53355)
Outline: (§1)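 Competitive binding assay across a 96-kinase panel with KIF18A compounds at 1 µM; values given as percentage of control (POC), single experiment.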

GAK = target: T1, GAK (Homo sapiens, UniProt O14976)
T1 sequence (O14976 1-1311): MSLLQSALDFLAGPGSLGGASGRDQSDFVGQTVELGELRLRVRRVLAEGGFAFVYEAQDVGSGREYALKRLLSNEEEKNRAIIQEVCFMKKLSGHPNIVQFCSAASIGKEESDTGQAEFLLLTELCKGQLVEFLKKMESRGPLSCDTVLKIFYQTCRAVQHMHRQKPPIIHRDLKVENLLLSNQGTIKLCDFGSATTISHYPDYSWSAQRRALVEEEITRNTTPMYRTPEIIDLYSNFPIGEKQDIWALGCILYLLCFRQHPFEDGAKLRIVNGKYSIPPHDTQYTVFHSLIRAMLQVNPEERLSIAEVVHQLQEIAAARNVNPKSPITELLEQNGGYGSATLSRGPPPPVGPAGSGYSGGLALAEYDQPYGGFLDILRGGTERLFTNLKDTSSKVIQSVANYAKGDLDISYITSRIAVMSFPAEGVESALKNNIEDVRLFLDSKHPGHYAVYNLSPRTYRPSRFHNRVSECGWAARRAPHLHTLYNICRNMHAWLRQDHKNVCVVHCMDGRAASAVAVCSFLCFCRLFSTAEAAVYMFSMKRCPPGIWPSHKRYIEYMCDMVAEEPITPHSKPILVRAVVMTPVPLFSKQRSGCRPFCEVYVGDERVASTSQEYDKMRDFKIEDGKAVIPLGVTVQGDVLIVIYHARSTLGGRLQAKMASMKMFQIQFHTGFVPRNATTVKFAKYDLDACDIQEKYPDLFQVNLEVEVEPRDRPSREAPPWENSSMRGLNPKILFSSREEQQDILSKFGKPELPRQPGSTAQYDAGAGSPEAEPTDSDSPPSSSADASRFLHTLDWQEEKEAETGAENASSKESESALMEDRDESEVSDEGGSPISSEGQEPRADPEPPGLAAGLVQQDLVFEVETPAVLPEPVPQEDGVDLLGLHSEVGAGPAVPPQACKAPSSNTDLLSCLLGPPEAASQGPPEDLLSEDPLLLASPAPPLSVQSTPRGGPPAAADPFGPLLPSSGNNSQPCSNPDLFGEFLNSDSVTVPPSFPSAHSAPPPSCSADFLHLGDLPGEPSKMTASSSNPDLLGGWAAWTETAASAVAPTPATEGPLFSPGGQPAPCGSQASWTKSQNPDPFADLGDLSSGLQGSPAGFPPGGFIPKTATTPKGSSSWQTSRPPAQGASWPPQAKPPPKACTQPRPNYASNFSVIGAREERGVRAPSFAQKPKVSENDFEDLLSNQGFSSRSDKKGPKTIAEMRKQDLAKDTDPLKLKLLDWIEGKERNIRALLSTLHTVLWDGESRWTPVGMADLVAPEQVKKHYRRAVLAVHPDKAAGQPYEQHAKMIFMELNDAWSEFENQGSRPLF
Outline: as §1

CDK8 = CDK8 (Homo sapiens, UniProt P49336)
Outline: as §1

PKB α = target: T2, PKB α (Homo sapiens, UniProt P31749)
T2 construct: gene AKT1
Outline: as §1

BMPR1A = BMPR1A (Homo sapiens, UniProt P36894)
Outline: as §1

[1] = read-out: Kinome Profiling performed by Eurofins DiscoverX / AM-1882, 1.0 µM / POC
[2] = read-out: Kinome Profiling performed by Eurofins DiscoverX / AM-0277, 1.0 µM / POC
[3] = read-out: Kinome Profiling performed by Eurofins DiscoverX / AM-5308, 1.0 µM / POC

BMPR1A, sequence (P36894 whole entry): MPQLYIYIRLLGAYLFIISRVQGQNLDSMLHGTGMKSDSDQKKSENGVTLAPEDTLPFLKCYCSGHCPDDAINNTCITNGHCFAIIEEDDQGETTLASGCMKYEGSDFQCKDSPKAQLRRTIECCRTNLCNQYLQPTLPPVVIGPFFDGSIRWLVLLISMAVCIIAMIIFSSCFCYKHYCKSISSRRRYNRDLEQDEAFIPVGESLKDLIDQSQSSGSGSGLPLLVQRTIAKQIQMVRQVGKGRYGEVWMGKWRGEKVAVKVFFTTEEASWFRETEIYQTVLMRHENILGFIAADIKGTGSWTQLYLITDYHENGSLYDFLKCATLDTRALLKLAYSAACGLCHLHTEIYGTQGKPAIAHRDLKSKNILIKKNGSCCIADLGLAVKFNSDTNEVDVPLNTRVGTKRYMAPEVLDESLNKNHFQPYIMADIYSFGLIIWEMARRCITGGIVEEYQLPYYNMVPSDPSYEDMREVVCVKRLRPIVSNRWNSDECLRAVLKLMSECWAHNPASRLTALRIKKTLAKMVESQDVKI
T2 sequence (P31749 whole entry): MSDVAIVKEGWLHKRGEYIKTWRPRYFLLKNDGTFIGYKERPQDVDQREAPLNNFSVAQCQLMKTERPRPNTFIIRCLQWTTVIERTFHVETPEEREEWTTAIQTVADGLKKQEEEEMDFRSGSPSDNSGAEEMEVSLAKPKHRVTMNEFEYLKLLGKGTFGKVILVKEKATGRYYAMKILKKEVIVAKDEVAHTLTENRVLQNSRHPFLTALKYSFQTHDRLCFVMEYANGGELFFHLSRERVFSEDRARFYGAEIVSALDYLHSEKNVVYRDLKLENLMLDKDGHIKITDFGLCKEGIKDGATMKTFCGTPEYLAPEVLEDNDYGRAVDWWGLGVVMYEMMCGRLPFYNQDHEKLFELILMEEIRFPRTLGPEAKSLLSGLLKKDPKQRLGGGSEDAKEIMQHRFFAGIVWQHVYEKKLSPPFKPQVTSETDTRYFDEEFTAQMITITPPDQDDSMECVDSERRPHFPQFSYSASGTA
DAPK1, sequence (P53355 whole entry): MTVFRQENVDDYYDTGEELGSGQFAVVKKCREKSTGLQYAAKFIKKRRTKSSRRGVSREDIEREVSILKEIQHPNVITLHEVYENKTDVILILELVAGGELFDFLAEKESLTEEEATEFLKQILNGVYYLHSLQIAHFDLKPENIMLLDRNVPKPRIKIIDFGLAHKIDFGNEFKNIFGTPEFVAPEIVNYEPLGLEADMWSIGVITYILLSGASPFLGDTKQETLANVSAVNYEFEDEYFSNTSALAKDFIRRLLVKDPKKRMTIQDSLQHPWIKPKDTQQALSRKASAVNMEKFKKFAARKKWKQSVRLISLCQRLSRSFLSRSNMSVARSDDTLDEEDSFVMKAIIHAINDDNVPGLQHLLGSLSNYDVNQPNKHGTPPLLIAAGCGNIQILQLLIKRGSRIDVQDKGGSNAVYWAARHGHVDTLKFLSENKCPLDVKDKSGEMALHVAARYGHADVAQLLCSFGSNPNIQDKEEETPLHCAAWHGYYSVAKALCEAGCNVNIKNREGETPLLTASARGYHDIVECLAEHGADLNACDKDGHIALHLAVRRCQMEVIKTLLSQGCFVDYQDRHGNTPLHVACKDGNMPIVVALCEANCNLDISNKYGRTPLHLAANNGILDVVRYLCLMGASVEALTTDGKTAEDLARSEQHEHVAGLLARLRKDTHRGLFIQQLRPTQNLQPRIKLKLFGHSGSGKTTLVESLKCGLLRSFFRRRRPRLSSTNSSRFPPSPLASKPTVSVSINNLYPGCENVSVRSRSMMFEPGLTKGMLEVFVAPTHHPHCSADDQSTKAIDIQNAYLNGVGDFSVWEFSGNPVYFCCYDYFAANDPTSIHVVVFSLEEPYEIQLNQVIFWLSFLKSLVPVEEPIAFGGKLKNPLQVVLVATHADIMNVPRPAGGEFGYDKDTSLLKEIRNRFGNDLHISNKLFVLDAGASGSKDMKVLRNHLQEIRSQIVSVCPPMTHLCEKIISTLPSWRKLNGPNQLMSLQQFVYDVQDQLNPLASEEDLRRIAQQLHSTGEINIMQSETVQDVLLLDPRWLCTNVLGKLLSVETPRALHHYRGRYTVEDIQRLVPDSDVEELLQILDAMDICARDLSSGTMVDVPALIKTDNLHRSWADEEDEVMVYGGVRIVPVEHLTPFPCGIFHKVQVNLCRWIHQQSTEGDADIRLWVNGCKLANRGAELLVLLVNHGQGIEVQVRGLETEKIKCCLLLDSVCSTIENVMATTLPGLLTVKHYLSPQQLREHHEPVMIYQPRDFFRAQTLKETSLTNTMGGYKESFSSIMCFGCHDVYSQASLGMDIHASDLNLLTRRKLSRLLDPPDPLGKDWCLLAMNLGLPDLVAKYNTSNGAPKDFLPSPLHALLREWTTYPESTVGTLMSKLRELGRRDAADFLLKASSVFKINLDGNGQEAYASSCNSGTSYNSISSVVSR
CDK8, sequence (P49336 whole entry): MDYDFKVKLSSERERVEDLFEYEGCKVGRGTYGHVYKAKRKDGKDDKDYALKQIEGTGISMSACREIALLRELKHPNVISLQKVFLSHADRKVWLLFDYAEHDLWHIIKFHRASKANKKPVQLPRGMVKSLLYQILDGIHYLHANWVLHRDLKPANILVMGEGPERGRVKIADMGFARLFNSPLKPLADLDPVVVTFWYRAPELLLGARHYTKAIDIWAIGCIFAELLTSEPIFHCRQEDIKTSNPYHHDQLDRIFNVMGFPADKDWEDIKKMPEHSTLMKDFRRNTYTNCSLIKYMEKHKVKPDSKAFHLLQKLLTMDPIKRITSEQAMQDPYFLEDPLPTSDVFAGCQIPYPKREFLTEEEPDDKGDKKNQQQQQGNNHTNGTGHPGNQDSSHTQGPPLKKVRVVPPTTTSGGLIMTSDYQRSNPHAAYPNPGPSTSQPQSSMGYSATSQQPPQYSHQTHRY

In the case of `CC(C)(C)NS(=O)(=O)c1cccc(NC(=O)c2ccc(S(=O)(=O)NC(C)(C)C)cc2N2CCC3(CC2)CC3)c1` [AM-1882], the remaining activity at 1 µM (DAPK1; [1]) is reported as 87%, the remaining activity at 1 µM (GAK; [1]) is reported as 99.5% and the remaining activity at 1 µM (CDK8; [1]) is reported as 34.5%. For the same compound, the remaining activity at 1 µM (PKB α; [1]) was 100% and the remaining activity at 1 µM (BMPR1A; [1]) was 100%.

For `CC(C)(CO)Nc1ccc(C(=O)Nc2cccc(S(=O)(=O)C3CCCC3)c2)c(N2CCC3(CC2)CC3)n1` [AM-0277], the remaining activity at 1 µM (DAPK1; [2]) was 100%, the remaining activity at 1 µM (GAK; [2]) was 100% and the remaining activity at 1 µM (CDK8; [2]) was 70%. For the same compound, the remaining activity at 1 µM (PKB α; [2]) was 94% and the remaining activity at 1 µM (BMPR1A; [2]) was 100%.

`C[C@@H]1CN(c2cccc(NC(=O)c3ccc(NS(=O)(=O)CCO)cc3N3CCC4(CC3)CC4)n2)CCO1` [AM-5308] showed a remaining activity at 1 µM (DAPK1; [3]) of 89.5%, a remaining activity at 1 µM (GAK; [3]) of 86% and a remaining activity at 1 µM (CDK8; [3]) of 87%. The remaining activity at 1 µM (PKB α; [3]) was 100% and the remaining activity at 1 µM (BMPR1A; [3]) was 93.5%.

— article PMC10824666 (Nature Cancer, 2023)
